From patent US8569580B2, “Transformed plants or algae with highly expressed chloroplast protein BPG2” (Riken, priority 2010, dated 2013)

What was measured:
[1] = tested on: Arabidopsis thaliana seedlings; test: Measurement of chlorophyll a and b in seedlings; type: in vivo; settings: 4 days, long days
Method: Arabidopsis thaliana Columbia-0 (Col-0) was used as the wild type. For cotyledon analysis, plants were germinated and grown on ½ MS medium (Duchefa) containing 1.5% sucrose and 0.9% phytoagar (Duchefa), with or without Brz. Germinated plants were transferred to soil. Conditions in the growth chamber were 16 h light (100 μE m^−2 sec^−1 white light)/8 h dark at 22° C. […] Plants were homogenized in 80% (v/v) acetone. The chlorophyll content of the centrifuged supernatants was determined at 645 nm and 663 nm. Chlorophyll a and b content were determined according to Arnon (1949): Chlorophyll a (μg/mg fresh weight)=(12.7A663−[…])/mg fresh weight Chlorophyll b (μg/mg fresh weight)=(22.9A645−4.67A663)/mg fresh weight

wild-type Arabidopsis = test: RT-PCR analysis of gene expression in dark-grown plants with Brz; type: in vivo, Arabidopsis thaliana; settings: wild type grown in the dark 7 days with Brz 0.1, 1, 3 μM
Source text: FIG. 6. Inducible expression of BPG2 by light and Brz. (a) RT-PCR analysis of BPG2 gene expression in different organs: root (R), stem (S), rosette leaf blade (LB), rosette leaf petiole (LP), cauline leaves (CL), and flowers (F) of wild-type Arabidopsis. ACT2 served as an internal control. (b) RT-PCR analysis of expression of BPG2, CAB, and rbcS after exposure to light. Total RNAs were extracted from the wild type germinated in the dark for 7 days and exposed to light for 0 (lane 1, 0), 0.5 (lane 2, 0.5), 1 (lane 3, 1), 2 (lane 4, 2), or 4 h (lane 5, 4), and from 7-day-old wild type under long-day conditions (16 h light and 8 h dark; lane 6, L). (c) RT-PCR analysis of expression of BPG2, CAB, rbcS, and DWF4 on Brz. Total RNAs were extracted from wild type germinated in the dark for 7 days with Brz.
Total RNA was extracted from wild type and bpg2 mutants with the RNeasy Plant mini kit (Qiagen). First strand cDNA was synthesized with Super Script III first-strand cDNA synthesis for RT (Invitrogen) and used as template. RT-PCR was performed with Ex Taq (Takara Bio). […]

[2] = target: cytochrome P450 steroid C-22 hydroxylase encoded by the DWF4 gene (Arabidopsis thaliana, UniProt O64989); settings: Asami et al., 2000, 2001; cited from earlier work
Chain of cytochrome P450 steroid C-22 hydroxylase encoded by the DWF4 gene (O64989 whole entry): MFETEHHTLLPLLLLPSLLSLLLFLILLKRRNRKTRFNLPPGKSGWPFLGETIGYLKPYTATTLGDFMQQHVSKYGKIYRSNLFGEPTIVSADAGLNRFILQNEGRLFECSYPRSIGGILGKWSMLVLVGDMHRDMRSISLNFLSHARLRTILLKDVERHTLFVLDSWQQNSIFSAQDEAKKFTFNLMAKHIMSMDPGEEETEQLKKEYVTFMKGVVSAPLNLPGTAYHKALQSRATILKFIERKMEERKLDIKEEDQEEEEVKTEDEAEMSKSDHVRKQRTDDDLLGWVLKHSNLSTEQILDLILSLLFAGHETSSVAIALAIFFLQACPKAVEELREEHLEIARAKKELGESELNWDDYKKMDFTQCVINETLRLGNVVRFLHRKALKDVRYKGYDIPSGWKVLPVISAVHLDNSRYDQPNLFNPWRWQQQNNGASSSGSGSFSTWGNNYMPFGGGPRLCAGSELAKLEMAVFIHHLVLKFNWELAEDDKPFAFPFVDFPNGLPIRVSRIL

Arabidopsis bpg2-1 = test: Hypocotyl phenotype when grown with Brz in the dark; type: in vivo, Arabidopsis thaliana; settings: bpg2-1 grown with Brz in the dark (data not shown)
[3] = tested on: Arabidopsis thaliana seedlings; test: Immunoblot analysis of chloroplast proteins; type: in vivo; settings: 1 μM Brz
Method: of wild type, bpg2-1, and bpg2-2 were ground in liquid nitrogen and extracted by boiling with two volumes/fresh weight of 1× Laemmli buffer [50 mM Tris-HCl (pH 6.8), 100 mM DTT, 2% (w/v) SDS, 0.1% (w/v) bromophenol blue, and 10% (w/v) glycerol] for immunoblot analysis of Rubisco LSU, SSU, and LHCP. Total proteins for immunoblot analysis of D1 protein were prepared as described (Nakajima et al., 1996). Proteins were separated by SDS-PAGE (12.5% acrylamide separating gel). After electrophoresis, the proteins were stained with Coomassie Brilliant Blue or electrophoretically transferred to Hybond ECL nitrocellulose membrane (Amersham). After blocking overnight in TBS (20 mM Tris, 0.137 M NaCl, pH7.4, 0.05% polyoxyethlene sorbital monolaurate) buffer containing 5% non-fat milk (Morinagamilk) at room temperature, the membrane was incubated in TBS buffer containing non-fat milk with polyclonal antibody for 1 h at room temperature. After washing in TBS buffer, the blots were incubated with horseradish peroxidase-conjugated secondary antibody (Promega for Rubisco L/S and LHCP, and Cosmo Bio for D1) for 1 h at room temperature, and the complexes were made visible with ECL Immoblin Western (Millipore). The polyclonal antibody against the tobacco Rubisco L/S complex was provided by F. Sato of Kyoto University. The polyclonal antibody against D1 and LHCP protein was obtained from Agrisera. LAS-4000 mini (Fuji Film) was used for detection.
To analyze BPG2 function with BR on chloroplast protein accumulation, we performed immunoblot analysis seedlings of wild type and bpg2 mutants in the light with and without Brz (FIG. 10). In wild type, Rubisco LSU protein from Brz-treated seedlings increased about 1.4-fold and D1 protein increased about 1.3-fold compared to that of no-Brz seedlings (FIG. 10a, b). […] The effect of BPG2 deficiency on LHCP protein was much smaller than on D1 and Rubisco LSU.

[4] = tested on: Arabidopsis bpg2 mutants and wild type; test: Northern blot analysis of photosynthesis gene expression; type: in vivo, Arabidopsis thaliana; settings: bpg2 mutants versus wild type, dark grown 5-day seedlings, 1 μM Brz
Method: FIG. 7. Chloroplast gene expression in bpg2 mutants. Total RNA was extracted from light grown 4-day-old seedlings (a), 3-week-old rosette leaves (b) and dark grown 5-day-seedling (c) of wild type (WT), bpg2-1, and bpg2-2. Northern blot analysis was carried out using probes for psbA and rbcL, encoded in the chloroplast, and rbcS, CAB, and 18S rRNA, encoded in the nucleus. (c) Seedlings were germinated with 0 or 1 μM Brz in the dark.
Total RNA was extracted from light grown 4-day-old seedlings, 3-week-old rosette leaves and dark grown 5-day-old seedlings of wild type, bpg2-1 and bpg2-2 with the RNeasy Plant Mini kit (Qiagen). Total RNA (3 μg) was separated in 1.2% agarose/0.66 M formaldehyde gels and blotted on Hybond N^+ (Amersham). After transfer, the ECL Direct Nucleic Acid Labeling and Detection system (GE Healthcare) was used for hybridization, and LAS-4000 mini (Fuji Film) was used for analysis of chemical fluorescence.

[5] = wild type, germinated in the light for 3 days

In the case of `CC(O)(c1ccccc1)C(Cc1ccc(Cl)cc1)n1cncn1` (centres unmarked) [Brz, brassinazole], the “chlorophyll levels following Brz treatment” value ([1]; bpg2:35S-BPG2 transformants, Brz 1 μM) is reported as “increase in chlorophyll levels”, the “endogenous chlorophyll a and b levels” value ([1]; wild-type seedlings, Brz 0.1 and 1 μM, light) is reported as “increased” and the BPG2 gene expression (wild-type Arabidopsis) is reported as “actually increased”. The “expression of CAB and rbcS” value (wild-type Arabidopsis) was “increased”, the “binding to cytochrome P450 steroid C-22 hydroxylase (DWF4)” value [2] was “binds directly” and the hypocotyl phenotype (Arabidopsis bpg2-1) was “same short hypocotyl as the wild type plants”. The “D1 protein of Brz-treated seedlings” value ([3]; bpg2 mutants, light 3 days) was “the same as in no-Brz seedlings”, the “Rubisco LSU protein of Brz-treated seedlings” value ([3]; bpg2 mutants, light 3 days) was “the same as in no-Brz seedlings” and the “induction of Rubisco LSU protein and D1 protein by Brz” value ([3]; clpB3 and clpC1 mutants, light 3 days) was “no induction”. For the same compound, the “D1 protein, Brz-treated compared to no-Brz seedlings” value [3, 5] was “about 1.3 fold”, the “Rubisco LSU protein, Brz-treated compared to no-Brz seedlings” value [3, 5] was “about 1.4 fold” and the “Rubisco SSU protein” value ([3]; wild type, light 3 days) was “increased”. For the same compound, the “nuclear encoded-LHCP protein” value ([3]; wild type, light 3 days) was “increased” and the “expression of psbA, rbcL, CAB and rbcS” value [4] was “to the same degree in bpg2 mutants as in wild type”.
